# ChEMBL document CHEMBL1201862, “PubChem BioAssay data set” (2004)
# Counter-ions that a name gives are not always drawn.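 Test compounds were applied to cells in 96-well plates for 48 hours at 5 doses. The concentration for 50% growth inhibition is given as GI50.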 Calls of active or inactive are those of the source. No stated cut-off is given here; in the data, active = GI50 up to about 1.1 µM and inactive = higher. Square brackets hold non-standard residues; d marks the D form. Residues, ends and D or L forms follow the SMILES beside them. Peptide text beside a SMILES is read from it. *: point of attachment. Boc = CC(C)(C)OC(=O)*
# How the values were obtained:
# Assay in all cases: growth of human tumour cells (NCI), 48 h
# BT-549 = tested on: BT-549
# DLD-1 = tested on: DLD-1
# M19-MEL = tested on: M19-MEL
# HOP-18 = tested on: HOP-18
# DMS-114 = tested on: DMS-114
# LXFL 529 = tested on: LXFL 529
# SNB-78 = tested on: SNB-78
# KM-20L2 = tested on: KM-20L2
# RXF 631 = tested on: RXF 631
smiles,measurement,setting,value
[N-]=[N+]=Nc1c(N2CCOCC2)c(Cl)nc2ccccc12,GI50,BT-549,25.4 µM (inactive)
Cc1cccc(-n2c(N)c(-c3nc4ccccc4[nH]3)sc2=S)c1,GI50,DLD-1,25.1 µM (inactive)
same,GI50,M19-MEL,25.8 µM (inactive)
same,GI50,HOP-18,47.3 µM (inactive)
same,GI50,DMS-114,22.8 µM (inactive)
same,GI50,LXFL 529,21 µM (inactive)
c1ccc2c(c1)ccc1nc3ccccn3c12,GI50,BT-549,> 100 µM (inactive)
S=P(C1CCCCC1)(C1CCCCC1)C(c1cccnc1)N1CCCC1 (stereo not given),GI50,BT-549,18.5 µM (inactive)
NNC(=O)CC(=O)Nc1ccc(C(=O)O)cc1,GI50,BT-549,> 100 µM (inactive)
COC(=O)CN(CC(=O)NCCNC(=O)OC(C)(C)C)C1CCCCC1N(CC(=O)OC)CC(=O)OC (stereo not given),GI50,BT-549,> 100 µM (inactive)
N=C(N)NS(=O)(=O)c1ccc(NC(=O)c2cccc3cc4ccccc4nc23)cc1,GI50,DLD-1,> 100 µM (inactive)
same,GI50,M19-MEL,> 100 µM (inactive)
same,GI50,DMS-114,97.5 µM (inactive)
same,GI50,SNB-78,40.6 µM (inactive)
same,GI50,LXFL 529,21.7 µM (inactive)
same,GI50,KM-20L2,> 100 µM (inactive)
COC(=O)c1c(O)ccc2c1c1c(n2CCc2ccccc2)C(=O)c2ccccc2C1,GI50,BT-549,24.4 µM (inactive)
O=[N+]([O-])c1ccc(C2=Nn3cnnc3SC2)o1,GI50,DLD-1,19.6 µM (inactive)
same,GI50,M19-MEL,4.02 µM (inactive)
same,GI50,RXF 631,12.1 µM (inactive)
same,GI50,DMS-114,10.8 µM (inactive)
same,GI50,SNB-78,22.2 µM (inactive)
same,GI50,LXFL 529,13.6 µM (inactive)
COc1cc2c(cc1NC(=O)c1ccccc1)c1c(n2S(=O)(=O)c2ccccc2)CCN(S(=O)(=O)c2ccccc2)C1,GI50,BT-549,> 100 µM (inactive)
Clc1ccc(C2=Cc3nc2c(-c2ccccc2)c2ccc([nH]2)c(-c2ccccc2)c2nc(c(-c4ccccc4)c4ccc([nH]4)c3-c3ccccc3)C=C2)cc1,GI50,BT-549,> 62.5 µM (inactive)
O=C(Nc1ccc([N+](=O)[O-])cc1[N+](=O)[O-])C(=O)C(C(=O)c1ccc(Cl)c(Cl)c1)C1OC(=O)c2ccccc21 (stereo not given),GI50,DLD-1,19.1 µM (inactive)
same,GI50,M19-MEL,25.1 µM (inactive)
same,GI50,DMS-114,18.1 µM (inactive)
same,GI50,SNB-78,21.9 µM (inactive)
same,GI50,LXFL 529,17.1 µM (inactive)
same,GI50,KM-20L2,29.8 µM (inactive)
CNN1C(=O)c2c(N)c(C#N)c(-c3ccccc3)c(-c3ccccc3)c2C1=O,GI50,BT-549,> 100 µM (inactive)
Nc1c(-c2nc3ccccc3[nH]2)sc(=S)n1-c1ccccc1,GI50,DLD-1,60.7 µM (inactive)
same,GI50,M19-MEL,> 100 µM (inactive)
same,GI50,RXF 631,> 100 µM (inactive)
same,GI50,DMS-114,96.2 µM (inactive)
same,GI50,SNB-78,> 100 µM (inactive)
same,GI50,LXFL 529,95.3 µM (inactive)
same,GI50,KM-20L2,> 10 µM (inactive)
O=[N+]([O-])c1ccc(C2=Nn3c(nnc3-c3ccccc3)SC2)o1,GI50,DLD-1,14 µM (inactive)
same,GI50,M19-MEL,18.5 µM (inactive)
same,GI50,HOP-18,19.5 µM (inactive)
same,GI50,DMS-114,19.7 µM (inactive)
same,GI50,SNB-78,20.3 µM (inactive)
same,GI50,LXFL 529,16.1 µM (inactive)
same,GI50,KM-20L2,24.7 µM (inactive)
O=[N+]([O-])c1ccc(Cl)c(CNc2ncnc3c2ncn3C2CCCCO2)c1 (stereo not given),GI50,BT-549,41.2 µM (inactive)
O=C(CC(=O)Nc1ccccc1Cl)NNC(Sc1ccccc1)c1cc(/N=N/c2ccc(Br)cc2)ccc1O (stereo not given),GI50,BT-549,1.66 µM (inactive)
CCOc1ccc(N/C(=C(/C(Cl)=C(/Cl)N2CCCCC2)[N+](=O)[O-])n2nnc3ccccc32)cc1,GI50,BT-549,17.7 µM (inactive)
CCCCCCCCCCCCCCCCCCNc1ccn(C2OC(COP(=O)(O)OCC3OC(n4cc(C)c(=O)[nH]c4=O)CC3F)C(O)C2O)c(=O)n1 (stereo not given),GI50,BT-549,5.19 µM (inactive)
O=C(CN1C(=O)c2ccccc2C1=O)OCC1CCCN2CCCCC12 (stereo not given),GI50,BT-549,> 100 µM (inactive)
Cc1cc(NS(=O)(=O)c2ccc(NC(=O)c3cccc4c(NNc5ccc(S(N)(=O)=O)cc5)c5ccccc5nc34)cc2)no1,GI50,BT-549,61.5 µM (inactive)
COc1ccccc1N1C(=O)/C(=C\c2cc(OC)c(OC)c(OC)c2)S(=O)(=O)C1c1ccccc1 (stereo not given),GI50,BT-549,30.5 µM (inactive)
COc1ccc(C(=O)/C=C2\Nc3cccnc3N\C2=C/C(=O)c2ccc(OC)cc2)cc1,GI50,BT-549,18.8 µM (inactive)
C=C1C(OC)=C(OC)C(=O)c2[nH]c3c(OC)cc([N+](=O)[O-])cc3c21,GI50,BT-549,> 100 µM (inactive)
CC(=O)Nc1[nH]n(C)c(=O)c1-c1nnc(C)s1,GI50,DLD-1,> 100 µM (inactive)
same,GI50,RXF 631,> 100 µM (inactive)
same,GI50,DMS-114,> 100 µM (inactive)
same,GI50,SNB-78,> 100 µM (inactive)
same,GI50,LXFL 529,> 100 µM (inactive)
same,GI50,KM-20L2,> 100 µM (inactive)
COc1cc(OC)nc(-n2c(N)c(C#N)c3ccc([N+](=O)[O-])cc3c2=O)n1,GI50,BT-549,> 100 µM (inactive)
COc1ccc(Cc2ccc3nc(O)cc(C)c3c2)cc1S(=O)(=O)O,GI50,BT-549,> 100 µM (inactive)
COC(=O)C(Cc1c[nH]c2ccccc12)NC(=O)C(Cc1c[nH]c2ccccc12)NC(=O)C(Cc1c[nH]c2ccccc12)NC(=O)C(Cc1c[nH]c2ccccc12)NC(=O)OC(C)(C)C (stereo not given) (Boc-WWWW-OMe; configuration not given here),GI50,BT-549,17.9 µM (inactive)
N=C(N)NCCC[C@H]1NC(=O)[C@@H](CCC(=O)O)NC(=O)[C@@H](CC(=O)O)NC(=O)[C@@H](CCC(=O)O)NC(=O)[C@H](Cc2c[nH]c3ccccc23)NC1=O (cyclo(W[dE][dD][dE][dR])),GI50,BT-549,> 7.5 µM (inactive)
C[N+]1(C)C[C@@H](O)C[C@@H]1C(=O)[O-] [BETONICINE],GI50,DLD-1,> 100 µM (inactive)
same,GI50,M19-MEL,> 100 µM (inactive)
same,GI50,HOP-18,> 100 µM (inactive)
same,GI50,DMS-114,> 100 µM (inactive)
same,GI50,SNB-78,> 100 µM (inactive)
same,GI50,LXFL 529,> 100 µM (inactive)
same,GI50,KM-20L2,> 100 µM (inactive)
Cc1c(-c2cnccn2)ssc1=S [OLTIPRAZ],GI50,BT-549,22 µM (inactive)
NCCCCN [PUTRESCINE HYDROCHLORIDE],GI50,BT-549,> 100 µM (inactive)
Cc1cn([C@H]2C[C@H](N=[N+]=[N-])[C@@H](CO)O2)c(=O)[nH]c1=O [ZIDOVUDINE],GI50,DLD-1,> 100 µM (inactive)
same,GI50,M19-MEL,> 100 µM (inactive)
same,GI50,BT-549,488 µM (inactive)
same,GI50,HOP-18,> 100 µM (inactive)
same,GI50,DMS-114,> 95.5 µM (inactive)
same,GI50,KM-20L2,> 100 µM (inactive)
